EPA's ToxRefDB 2

How the values were obtained:
[1] = system: rat; conditions: Subchronic oral toxicity in rodents, fischer, Gavage/Intubation, dose end: 14 week, group: systemic
[2] = system: mouse; conditions: Subchronic oral toxicity in rodents, b6c3f1, Gavage/Intubation, dose end: 14 week, group: systemic, systemic / hematology / erythrocyte (rbc) count differential / erythrocyte (rbc) + systemic / hematology / hematocrit (hct) / hematocrit (…
[3] = system: dog; conditions: Subchronic oral toxicity in nonrodent, beagle, Capsule, dose end: 90 day, group: systemic
[4] = system: rat; conditions: Prenatal developmental toxicity study, sprague dawley, Oral, Gavage/Intubation, dose end: 17 GD
[5] = system: rat; conditions: Subchronic oral toxicity in rodents, sprague dawley, Feed, dose end: 3 month, group: systemic
[6] = system: mouse; conditions: Subchronic oral toxicity in rodents, b6c3f1, Feed, dose end: 13 week, group: systemic
[7] = system: mouse; conditions: Subchronic dermal toxicity, b6c3f1, Topical, dose end: 13 week, group: systemic, systemic / pathology gross / sperm measure / sperm count
[8] = system: rat; conditions: Subchronic dermal toxicity, fischer, Topical, dose end: 13 week, group: systemic, systemic / organ weight / kidney / relative to body weight
[9] = system: rat; conditions: Subchronic oral toxicity in rodents, fischer, Feed, dose end: 13 week
[10] = system: rat; conditions: Subchronic oral toxicity in rodents, other, Feed, dose end: 90 day, group: systemic, systemic / pathology gross / kidney / enlarged + systemic / pathology gross / liver / enlarged + systemic / urinalysis / glucose / glucose…
[11] = system: dog; conditions: Combined chronic toxicity/carcinogenicity; beagle; Oral; Feed; dose end: 104 week; group: systemic; systemic / clinical chemistry / alanine aminotransferase (alt/sgpt) / alanine aminotransferase (alt/sgpt) + systemic / clinical chemistry / …
[12] = system: rabbit; conditions: Prenatal developmental toxicity study, new zealand white, Oral, Gavage/Intubation, dose end: 19 GD
[13] = systemic / clinical chemistry / alanine aminotransferase (alt/sgpt) / alanine aminotransferase (alt/sgpt) + systemic / clinical chemistry / …
[14] = systemic / hematology / hematocrit (hct) / hematocrit (hct) + systemic / pathology microscopic / nose / degeneration + systemic / clinical …
[15] = systemic / organ weight / liver / absolute + systemic / organ weight / liver / relative to body weight
[16] = group: developmental, developmental / developmental malformation / bone / full supernumerary + developmental / developmental malformation / bone / cervical + …
[17] = group: maternal, systemic / in life observation / body weight / body weight gain + systemic / in life observation / food consumption / food consumption
[18] = group: maternal, systemic / in life observation / body weight / body weight gain + systemic / in life observation / food consumption / food consumption + …
[19] = systemic / hematology / hematocrit (hct) / hematocrit (hct) + systemic / hematology / hemoglobin (hgb) / hemoglobin (hgb)
[20] = systemic / hematology / hematocrit (hct) / hematocrit (hct) + systemic / hematology / hemoglobin (hgb) / hemoglobin (hgb) + systemic / in …
[21] = systemic / in life observation / body weight / body weight + systemic / in life observation / body weight / body weight gain + systemic / …
[22] = systemic / organ weight / liver / relative to body weight
[23] = group: maternal, reproductive / reproductive performance / estrous cycle / length
[24] = group: systemic, systemic / clinical chemistry / gamma glutamyl transferase (ggt) / gamma glutamyl transferase (ggt) + systemic / in life observation / body …
[25] = group: systemic, systemic / organ weight / liver / absolute + systemic / organ weight / liver / relative to body weight
[26] = group: developmental, developmental / developmental malformation / bone / supernumerary + systemic / in life observation / body weight / fetal weight
[27] = group: maternal, systemic / in life observation / body weight / body weight gain

With CCCC=NO [Butanal oxime] the LOAEL [1, 13] was > 600 mg/kg/day, the NOAEL [1, 13] was ≥ 600 mg/kg/day and the LEL [1, 14] was 25 mg/kg/day. For the same molecule, the NEL [1, 14] was < 25 mg/kg/day, the LEL [2] was 25 mg/kg/day and the LOAEL [2] was > 600 mg/kg/day. The NEL [2] was < 25 mg/kg/day and the NOAEL [2] was ≥ 600 mg/kg/day.
With CC(C)(C)C(O)/C(=C\c1ccc(Cl)cc1Cl)n1cncn1 (stereo not given) [Diniconazole] the LOAEL ([3]; systemic / in life observation / food consumption / food efficiency) was 200 mg/kg/day, the NOAEL ([3]; systemic / in life observation / food consumption / food efficiency + systemic / clinical chemistry / alkaline phosphatase (alp/alk) / …) was 40 mg/kg/day and the LEL [3, 15] was 40 mg/kg/day. The NEL [3, 15] was < 40 mg/kg/day, the LOAEL ([4]; group: developmental, developmental / developmental malformation / bone / full supernumerary + developmental / developmental malformation / bone / cervical) was 20 mg/kg/day and the LEL [4, 16] was 20 mg/kg/day. The NEL [4, 16] was 5 mg/kg/day, the NOAEL [4, 16] was 5 mg/kg/day and the LEL [4, 17] was 20 mg/kg/day. It also gave an LOAEL [4, 17] of 20 mg/kg/day, an NEL [4, 18] of 5 mg/kg/day and an NOAEL [4, 18] of 5 mg/kg/day. For the same molecule, the LOAEL [5, 19] was 0.71 mg/kg/day, the NOAEL [5, 19] was < 0.71 mg/kg/day and the LEL [5, 20] was 0.71 mg/kg/day. For the same molecule, the NEL [5, 20] was < 0.71 mg/kg/day.
For COc1ccc(C(=O)c2ccccc2)c(O)c1 [2-Hydroxy-4-methoxybenzophenone], the LOAEL [6, 21] was > 13900 mg/kg/day, the NOAEL [6, 21] was ≥ 13900 mg/kg/day and the LEL [6, 22] was 629 mg/kg/day. For the same molecule, the NEL [6, 22] was < 629 mg/kg/day, the LEL [7] was 22.5 mg/kg/day and the LOAEL [7] was > 364 mg/kg/day. For the same molecule, the NEL [7] was < 22.5 mg/kg/day, the NOAEL [7] was ≥ 364 mg/kg/day and the LEL [8] was 25 mg/kg/day. For the same molecule, the LOAEL [8] was > 200 mg/kg/day, the NEL [8] was 12.5 mg/kg/day and the NOAEL [8] was ≥ 200 mg/kg/day. For the same molecule, the LEL [9, 23] was 3260 mg/kg/day, the LOAEL [9, 23] was > 3260 mg/kg/day and the NEL [9, 23] was 1600 mg/kg/day. The NOAEL [9, 23] was ≥ 3260 mg/kg/day, the LOAEL [9, 24] was > 3260 mg/kg/day and the NOAEL [9, 24] was ≥ 3260 mg/kg/day. For the same molecule, the LEL [9, 25] was 196 mg/kg/day and the NEL [9, 25] was < 196 mg/kg/day.
In the case of COc1cc(Cl)c(OC)cc1Cl [Chloroneb], the LEL [10] is reported as 375 mg/kg/day, the LOAEL [10] is reported as 375 mg/kg/day and the NEL [10] is reported as 25 mg/kg/day. For the same molecule, the NOAEL [10] was 25 mg/kg/day, the LEL [11] was 62.5 mg/kg/day and the LOAEL [11] was 62.5 mg/kg/day. For the same molecule, the NEL [11] was 12.5 mg/kg/day, the NOAEL [11] was 12.5 mg/kg/day and the LEL [12, 26] was 1000 mg/kg/day. It also gave an LOAEL [12, 26] of 1000 mg/kg/day, an NEL [12, 26] of 100 mg/kg/day and an NOAEL [12, 26] of 100 mg/kg/day. For the same molecule, the LEL [12, 27] was 1000 mg/kg/day, the LOAEL [12, 27] was 1000 mg/kg/day and the NEL [12, 27] was 100 mg/kg/day. For the same molecule, the NOAEL [12, 27] was 100 mg/kg/day.
